Reference: patent US4933456A, “Dipyridoxyl phosphate NMRI contrast agents” (Salutar, Inc., priority 1987, dated 1990)

Tests used:
[1] = Potentiometric titration of the ligand DPDP; format: physicochemical; conditions: pH of 3 and above
Protocol: The compound DPDP was studied potentiometrically from pH 11.2 to 2.0. Data sets were collected on a custom-built automatic potentiometric titration apparatus composed of a METROHM 655 DOSIMAT automatic buret, a FISHER ACCUMET pH meter with a CORNING calomel combination electrode, a custom-blown water jacketed titration cell, a BRINKMAN LAUDA K-2/R constant temperature bath and a COMMODORE 64 computer. […] Data analysis was performed on an IBM-AT computer using the least squares program, BETA (Harris, W. et al, supra), and the data analysis program, HANDNBAR (Harris, W. et al, supra). The titrants were standardized by phenophthalein titration as follows: KOH was calibrated against potassium hydrogen phthalate (a primary standard), and HCl solutions were calibrated against the KOH standard. […] All solutions were made from distilled, deionized water that was further purified on a MILLI-Q cartridge system, degassed, and then kept under an atmosphere of argon which had been scrubbed for CO2 and O2. Additions of EDTA and Mn(II) solutions were performed using calibrated GILMOT pipets.

[2] = cited from earlier work

Cc1ncc(COP(=O)(O)O)c(CN(CCN(CC(=O)O)Cc2c(COP(=O)(O)O)cnc(C)c2O)CC(=O)O)c1O [DPDP, N,N'-bis-(pyridoxal-5-phosphate)ethylenediamine-N,N'-diacetic acid or N,N'-bis(3-hydroxy-2-methyl-5-phosphonomethyl-4-pyridylmethyl)ethylenediamine-N,N'-diacetic acid]
ionization state of the ligand [1]: anionic and possesses deprotonated metal binding sites

O=C(O)C(NCCNC(C(=O)O)c1ccccc1O)c1ccccc1O (centres unmarked) [EHPG, N,N'-ethylenebis-2-(o-hydroxyphenyl)glycine]
stability of the Fe(III) chelate ([2]; Anderegg et al): high stability
oxidation of manganese(II) in EHPG complexes ([2]; above pH 5, also under inert atmospheres, Frost et al): irreversibly oxidized

O=C(O)CN(CCN(CC(=O)O)Cc1ccccc1O)Cc1ccccc1O [HBED, N,N'-bis(2-hydroxybenzyl)ethylenediamine-N,N'-diacetic acid]
log Kf (formation constant) ([2]; manganese chelate, reported by L'Eplathenier et al): 14.8
oxidation of manganese(II) by the phenolic ligand during titration ([2]; titrations of L'Eplathenier et al, judged from Patch et al): oxidized by the phenolic ligand
